Measurements reported in patent publication US9452194B2, “Methods for treating HCV” (AbbVie Inc., priority 2011, dated 2016).

What was measured:
[1] = Bioavailability of solid formulation of Compound 2 with increased binder; type: in vivo; conditions: 250 mg in the improved formulation versus 400 mg in the original formulation
1b-Con1 replicons = experiment: Predominant resistant variants selected in replicons, fold resistance; type: cell-based, Hepatitis C virus
Description: (§1) Predominant resistant variants selected by Compound 1, 2, or 4 in genotype 1 replicons were also determined.

1a-H77 replicons = experiment: as above; type: cell-based, Hepatitis C virus
Description: as §1

COc1c(-c2ccc3cc(NS(C)(=O)=O)ccc3c2)cc(-n2ccc(=O)[nH]c2=O)cc1C(C)(C)C [Compound 2, N-(6-(3-tert-butyl-5-(2,4-dioxo-3,4-dihydropyrimidin-1(2H)-yl)-2-methoxyphenyl)naphthalen-2-yl)methanesulfonamide]
bioequivalence of improved solid formulation (increased amount of binder, e.g. copovidone) [1]: bioequivalent
fold resistance (1b-Con1 replicons; variant C316Y): 1400 fold
fold resistance (1b-Con1 replicons; variant D559G): 100 fold
fold resistance (1b-Con1 replicons; variant M414T): 26 fold
fold resistance (1a-H77 replicons; variant C316Y): 1600 fold
fold resistance (1a-H77 replicons; variant M414T): 36 fold
fold resistance (1a-H77 replicons; variant S556G): 15 fold
fold resistance (1a-H77 replicons; variant Y448C): 980 fold

COC(=O)N[C@H](C(=O)N1CCC[C@H]1C(=O)Nc1ccc([C@@H]2CC[C@@H](c3ccc(NC(=O)[C@@H]4CCCN4C(=O)[C@@H](NC(=O)OC)C(C)C)cc3)N2c2ccc(C(C)(C)C)cc2)cc1)C(C)C [Compound 4]
fold resistance (1b-Con1 replicons; variant Y93H): 55 fold
fold resistance (1a-H77 replicons; variant M28T): 9000 fold
fold resistance (1a-H77 replicons; variant M28V): 60 fold
fold resistance (1a-H77 replicons; variant Q30R): 800 fold
fold resistance (1a-H77 replicons; variant Y93C): 1700 fold
fold resistance (1a-H77 replicons; variant Y93H): 41000 fold

Cc1cnc(C(=O)N[C@H]2CCCCC/C=C\[C@@H]3C[C@@]3(C(=O)NS(=O)(=O)C3CC3)NC(=O)[C@@H]3C[C@@H](Oc4nc5ccccc5c5ccccc45)CN3C2=O)cn1 [Compound 1, (2R,6S,13aS,14aR,16aS,Z)-N-(cyclopropylsulfonyl)-6-(5-methylpyrazine-2-carboxamido)-5,16-dioxo-2-(phenanthridin-6-yloxy)-1,2,3,5,6,7,8,9,10,11,13a,14,14a,15,16,16a-hexadecahydrocyclopropa[e]pyrrolo[1,2-a][1,4]diazacyclopentadecine-14a-carboxamide]
fold resistance (1b-Con1 replicons; variant A156T): 9 fold
fold resistance (1b-Con1 replicons; variant D168V): 190 fold
fold resistance (1b-Con1 replicons; variant R155K): 48 fold
fold resistance (1a-H77 replicons; variant D168A): 48 fold
fold resistance (1a-H77 replicons; variant R155K): 26 fold
